By viability is commonly meant a read-out of living cells in per cent, often relative to untreated cells.

Molecules are shown by their SMILES.

Results on 78 compounds are retold here after paper PMC12040169 (PLOS Biology, 2025).

One data set is described as follows: in vitro. As to conditions: human, hela cells, % viability.
As for `COCCNc1nc(-c2ccccc2CO)ccc1C(=O)NCCNC(C)=O` [CBK076548], the viability at 28.5 h, 10 µM turned out to be 101%.
Still for that read-out and setting: the same measure for `COC1CCN(C2CCc3c(Cl)cc(Cl)cc32)CC1` (stereo not drawn) [CBK304883]: 90.6%.
With `Cc1ccc(C2=CCN(CC(=O)Nc3ccccn3)CC2)o1` [CBK283634], the viability at 28.5 h, 10 µM was 98.7%.
Still for that read-out and setting: the result for `CC(O)CNc1nccnc1-c1ccc(S(C)(=O)=O)cc1` (stereo not drawn) [CBK037669] reads 96.1%.
The same measure, in the same setting: the same measure for `O=C(NCc1ccc(-c2csnn2)cc1)c1ccco1` [CBK149289]: 89%.
`CN(C)/C=N/c1ncc2ncn(C3CC(O)C(CO)O3)c2n1` (stereo not drawn) [CBK201175]: the viability at 28.5 h, 10 µM worked out at 90.8%.
`CC(CCO)CNS(=O)(=O)c1ccc(N2CCCC2=O)cc1` (stereo not drawn) [CBK306358]: the viability at 28.5 h, 10 µM amounted to 90.5%.
As for `COC(=O)c1ccc(NC(=O)N(Cc2cnn(C)c2)CC(C)C)cc1Cl` [CBK304387], the viability at 28.5 h, 10 µM amounted to 93.1%.
The same measure, in the same setting: the result for `COCC1(O)CCN(Cc2sccc2Cl)CC1` [CBK304252] reads 98.7%; that for `O=C(O)CN1C(=O)c2ccc(C(=O)c3ccc4c(c3)C(=O)N(CC(=O)O)C4=O)cc2C1=O` [CBK262166], 82.3%; that for `Brc1cn2ccnc2c(NCCc2ccccn2)n1` [CBK066244], 92.9%.
On the same count and under the same terms, the same measure for `COC(=O)c1ccc(NC(=O)Cn2nnc(-c3ccc(CN4CCOCC4)cc3)n2)cc1` [CBK134589]: 95.4%; for `COc1cc(F)ccc1-c1ccc(N)c2ccccc12` [CBK084319]: 103%; for `CCOC(=O)Cc1nnc(-c2ccc(Cl)cc2)[nH]1` [CBK021882]: 89.1%.
As to `O=C(O)COc1ccc(Br)cc1/C=N/Nc1cccc2cccnc12` [CBK262362], the viability at 28.5 h, 10 µM worked out at 112%.
Same read-out and setting: the same measure for `CCC(NC(=O)C(C)n1cc(Cl)cn1)c1ccc(OC)cc1` (stereo not drawn) [CBK282029]: 95.3%; for `O=C(NCc1ccccc1)c1ccc(N2C(=O)CSC23C(=O)Nc2ccccc23)cc1` (stereo not drawn) [CBK093476]: 109%; for `COc1ccc(Nc2cc(-c3ccccc3OC)ncn2)cn1` [CBK037176]: 88.9%.
In the case of `CCOC(=O)NC(=O)N1CCC(N2C(=O)OCC2(C)C)CC1` [CBK044179], the viability at 28.5 h, 10 µM was 90.5%.
The same measure, in the same setting: the same measure for `O=C(c1cc[nH]c1)N1CCC2(CCN(Cc3ccccc3)CC2)C1` [CBK136756]: 86.9%.
Still for that read-out and setting: the result for `O=C(CN(c1cccc(Cl)c1)S(=O)(=O)c1ccccc1)NN=C1CCCCC1` [CBK262470] reads 114%; that for `O=C(CSCCO)Nc1ccc(Oc2ccccc2)cc1` [CBK269167], 98.4%.
Regarding `COC(=O)c1ccc2c(=O)n(CC(C)O)c(SC3CCOC3=O)nc2c1` (stereo not drawn) [CBK304997], the viability at 28.5 h, 10 µM stood at 84.7%.
Same read-out and setting: the same measure for `O=C(CO)N1CC2(CCN(CCc3cccc4ccccc34)CC2)c2ccccc21` [CBK137003]: 91.8%.
On the same count and under the same terms, the same measure for `CCOC(=O)c1cc(C(C)C)sc1NC(=O)C1C2C=CC(C2)C1C(=O)O` (stereo not drawn) [CBK265417]: 95.4%; for `Cc1csc(NC(=O)CN2CCOC(c3ccc(F)cc3)C2)n1` (stereo not drawn) [CBK304703]: 116%.
In the case of `CSc1ccccc1-n1nnnc1SCc1ccccc1` [CBK099033], the viability at 28.5 h, 10 µM worked out at 83%.
As for `O=C(Nc1ccc(N2CCN(Cc3ccccc3F)CC2)cc1)c1cccnc1` [CBK267250], the viability at 28.5 h, 10 µM came out at 106%.
On the same count and under the same terms, the same measure for `Cc1nc(SCCO)c2c(=O)n(C)c(=O)n(CC(C)C)c2n1` [CBK306114]: 85.8%.
The same measure, in the same setting: the result for `CCOC(=O)C1=NN(C)c2cnn(Cc3ccc(Cl)cc3)c(=O)c2C1C(=O)CC(C)C` (stereo not drawn) [CBK021389] reads 91.9%; that for `CCOc1ccc(S(=O)(=O)N2CCSC2c2ccc(OC)c([N+](=O)[O-])c2)cc1` (stereo not drawn) [CBK263293], 101%.
On the same count and under the same terms, the result for `O=C(O)CCNS(=O)(=O)c1ccc(Br)cc1` [CBK261941] reads 90.6%.
As to `Cn1c(=O)c2c(ncn2CCCn2cnc3c2c(=O)n(C)c(=O)n3C)n(C)c1=O` [CBK268933], the viability at 28.5 h, 10 µM was found to be 106%.
The same measure, in the same setting: the same measure for `CSc1nnc(-c2ccccc2[N+](=O)[O-])n1CC(C)C` [CBK074959]: 98.4%.
In the case of `Nc1nc2c(ncn2[C@H]2C[C@@H](O)[C@@H](CO)O2)c(=O)[nH]1` [CBK201294], the viability at 28.5 h, 10 µM amounted to 98.1%.
Take `Cc1ccc(Cn2c(CN3CCOCC3)nc3c2c(=O)n(C)c(=O)n3C)cc1` [CBK269583]: the viability at 28.5 h, 10 µM came out at 91.1%.
On the same count and under the same terms, the result for `CN(Cc1ncc[nH]1)C(=O)c1cn(Cc2cccc(C(F)(F)F)c2)nn1` [CBK306768] reads 84.4%; that for `COc1ccc(N(C)C(=O)c2ccc(Cn3nc(NC(=O)Cc4ccc5c(c4)OCO5)c4ccccc43)cc2)cc1` [CBK059530], 103%; that for `CC(C)(C)OC(=O)N1CCC(c2nc(-c3cccnc3)no2)CC1` [CBK304332], 84.6%.
As for `Nc1ccc2c(O)c(C(=O)NCc3ccc(Cl)cc3)c(=O)[nH]c2c1` [CBK017557], the viability at 28.5 h, 10 µM came to 91.4%.
The same measure, in the same setting: the result for `CCc1nc2ccc(C(=O)Nc3ccc(C(N)=O)cc3)cn2c1N(CC)Cc1cccc(Br)c1` [CBK146960] reads 92.9%.
Same read-out and setting: the same measure for `CS(=O)(=O)Nc1cc2cccnc2nc1-c1ccccc1` [CBK085689]: 104%; for `c1ccc(N2CCN(c3nc4cc5c(cc4s3)OCO5)CC2)cc1` [CBK287495]: 108%.
The same measure, in the same setting: the result for `C1=CC2CC1CC2CN1CCC(N(CCc2ccccc2)Cc2ccccc2)CC1` (stereo not drawn) [CBK264613G] reads 87.7%; that for `Cc1nnc(SCC2=NN(c3nc4ccccc4[nH]3)C(=O)C2)s1` [CBK293979], 108%.
In the case of `CCn1c2ccccc2c2cc(/C=N/c3cc(S(=O)(=O)c4ccc(O)c(/N=C/c5ccc6c(c5)c5ccccc5n6CC)c4)ccc3O)ccc21` [CBK261229], the viability at 28.5 h, 10 µM is 76.5%.
Same read-out and setting: the same measure for `CC(C)OC(=O)c1cccnc1N1CCN(CCCC(c2ccc(F)cc2)c2ccc(F)cc2)CC1` [CBK025340C]: 103%.
On the same count and under the same terms, the same measure for `NC(=O)c1ccccc1NC(=O)c1ccc(C(=O)Nc2ccccc2C(N)=O)cc1` [CBK261167]: 106%.
Regarding `O=C1NCC2(CCCN(Cc3ccc(F)cc3)C2)Oc2ccccc21` (stereo not drawn) [CBK284857], the viability at 28.5 h, 10 µM amounted to 92.7%.
In the case of `Cc1c(C(=O)O)sc(S(=O)(=O)N2CCN(C(=O)c3ccc(C(C)(C)C)cc3)CC2)c1C(=O)O` [CBK297119], the viability at 28.5 h, 10 µM was 85.1%.
On to `NC(=O)CN1CC2(CCN(CCc3c[nH]c4ccccc34)CC2)c2ccccc21` [CBK126784], for which the viability at 28.5 h, 10 µM was 93.3%.
As to `O=C(NC(NC(=O)c1ccccc1F)c1ccc2c(c1)OCO2)c1ccccc1F` [CBK265742], the viability at 28.5 h, 10 µM turned out to be 106%.
In the case of `CC(c1ccc2c(c1)OCO2)c1cc2c(cc1OCCO)OCO2` (stereo not drawn) [CBK200110], the viability at 28.5 h, 10 µM was 98.9%.
The same measure, in the same setting: the same measure for `O=[N+]([O-])c1cc(Nc2ncnc3ccccc23)cc(Oc2ccccc2)c1` [CBK293928]: 90.3%.
The same measure, in the same setting: the same measure for `COC(=O)COc1nccnc1-c1ccc(C)c(C)c1` [CBK106871]: 83.3%.
The same measure, in the same setting: the result for `O=C(O)C[C@@H]1CCN(C(=O)NCc2ccccc2)C[C@@H]1CC1=NCCc2ccccc21` [CBK289161] reads 94.7%; that for `CCOC(=O)Cn1nc([N+](=O)[O-])c(Cl)c1C` [CBK269605], 86.4%; that for `COc1ncc(-c2nccnc2OC)c(OC)n1` [CBK106744], 94.2%.
Take `CCN(CC)C(=O)CN1CCC(c2ccc(OC)cc2)CC1` [CBK283559]: the viability at 28.5 h, 10 µM stood at 102%.
On the same count and under the same terms, the same measure for `COc1ccc(CNC(=O)c2nc(-c3ccccn3)no2)cc1` [CBK287877]: 90.3%; for `COc1ncc(-c2nccnc2N2CCCC2CO)c(OC)n1` (stereo not drawn) [CBK036638]: 92.8%.
Same read-out and setting: the same measure for `O=C(Nc1ccccc1[N+](=O)[O-])c1ccc(Cl)c(S(=O)(=O)N2CCC(C(=O)O)CC2)c1` [CBK265180]: 101%.
Same read-out and setting: the result for `Cc1cc(=O)oc2cc(OCC(=O)Nc3cccc(C(=O)O)c3)ccc12` [CBK287058] reads 85%.
As for `CCNc1nc(-c2ccc3c(c2)CCCN3S(C)(=O)=O)cs1` [CBK305861], the viability at 28.5 h, 10 µM stood at 89.8%.
Same read-out and setting: the result for `CC(NC(=O)C1C2CCC(CC2)C1C(=O)O)c1ccncc1` (stereo not drawn) [CBK287061] reads 102%; that for `COc1cc(C2C3=C(COC3=O)Nc3[nH]nc(C)c32)ccc1O` (stereo not drawn) [CBK288146], 98.5%.
Still for that read-out and setting: the result for `N#CCCN(C(=O)NCc1cccnc1)C1CCCCC1` [CBK156355] reads 104%; that for `NC(=O)NC(CC(=O)N1CCOC2CCCCC21)c1cccc(Br)c1` (stereo not drawn) [CBK306299], 93.8%; that for `CC1=NN(c2ccc(S(N)(=O)=O)cc2)C(=O)/C1=C\c1ccc(-c2cc([N+](=O)[O-])ccc2C)o1` [CBK263460], 106%.
As for `CC(C)C(=O)N1C[C@H]2N(C)C(=O)c3ccccc3C(=O)[C@@]2(C)C1` [CBK284568], the viability at 28.5 h, 10 µM amounted to 97.8%.
Still for that read-out and setting: the result for `O=C(O)c1ccc(N2C(=O)C(O)=C(C(=O)c3ccccc3)C2c2cccc([N+](=O)[O-])c2)cc1` (stereo not drawn) [CBK263760] reads 92.5%; that for `Cc1ccc(S(=O)(=O)NC(C)(C)CSc2ccccn2)cc1` [CBK266360], 86.1%; that for `CN(C)CCCn1cnc2c1c(=O)[nH]c(=O)n2Cc1ccccc1` [CBK291234], 95.3%.
The same measure, in the same setting: the result for `O=C(O)C1CC(=O)N(CCc2c[nH]c3ccc(Cl)cc23)C1` (stereo not drawn) [CBK287211] reads 91%; that for `Cn1ccnc1C1(O)CC2CCC(C1)N2C(=O)Nc1ccccc1F` (stereo not drawn) [CBK284178], 88.2%; that for `CCOc1ccc(C(C)(CC(N)=O)C(=O)O)cc1` (stereo not drawn) [CBK286778], 97.9%.
The same measure, in the same setting: the same measure for `O/N=C/Nc1nccc(-c2cc(Cl)sc2Cl)n1` [CBK005934]: 87.5%.

The data set is the same for the next values; noted with them: human, hela cells, % viability, bulk resorufin, single well.
In the case of `O=C(COc1ccc(C=C2C(=O)NC(=O)NC2=O)cc1)NCC1CCCO1` (stereo not drawn) [CBK263709], the viability at 28.5 h, 10 µM came to 91.9%.
